How the values were obtained:
[1] = biological target: T1, orotidine 5'-monophosphate decarboxylase (ScOMPDC) (Saccharomyces cerevisiae, UniProt P03962, R235A); assay: UV decarboxylation kinetics of truncated substrate; assay type: biochemical
T1 sequence (P03962 2-267 R235A): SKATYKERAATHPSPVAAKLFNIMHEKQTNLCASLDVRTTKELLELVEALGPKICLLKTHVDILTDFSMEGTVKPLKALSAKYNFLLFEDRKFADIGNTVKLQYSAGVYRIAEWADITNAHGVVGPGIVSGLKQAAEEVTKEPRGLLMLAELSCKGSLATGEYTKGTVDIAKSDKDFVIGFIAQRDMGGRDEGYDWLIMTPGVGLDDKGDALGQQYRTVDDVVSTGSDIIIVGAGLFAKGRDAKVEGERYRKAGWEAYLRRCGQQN

[2] = biological target: T1, orotidine 5'-monophosphate decarboxylase (ScOMPDC)
[3] = biological target: T1, orotidine 5'-monophosphate decarboxylase (ScOMPDC); assay: […] NMR deuterium exchange kinetics with purified enzyme, Michaelis-Menten fit; assay type: biochemical

O=C(O)c1c(F)c(=O)[nH]c(=O)n1[C@@H]1OC[C@@H](O)[C@H]1O [FEO, 1-(β-D-erythrofuranosyl)-5-fluoroorotic acid]
FEO + HPO3^2- / (kcat/Km)E [1]: 12 M⁻¹ s⁻¹

O=[PH](O)O [HPO3^2−, phosphite dianion]
FEO + HPO3^2- / (kcat/Km)E•HPi/Kd (M^-2 s^-1) [2]: 250 ± 15 M^−2 s^−1

O=c1[nH]c(=O)n([C@@H]2O[C@H](COP(=O)(O)O)[C@@H](O)[C@H]2O)cc1F [h-FUMP, 5-fluorouridine 5'-monophosphate]
Kd [3]: 5 mM
